Measured values taken from patent US5962525A, “6,7-disubstituted-2-aminotetralines active as immunomodulators and pharmaceutical compositions containing same” (Sigma-Tau, priority 1990, dated 1999).
“And” between values parts separate entries of the source, which are not always exact repeats. Equal entries are not always repeated. Where two headings read alike, the source gives them in different places.

Columns and labels:
[1] = test system: murine peritoneal macrophages; tumor targets Daudi and CEM-CM3; assay: "In vitro-ex vivo" effect on the cytotoxic activity of peritoneal macrophages (lysis of 3H-TdR labelled tumor cells); design: species or system mouse (B6 D2 F1, C57B16); tumor targets human
Procedure: Assessment of the "in vitro-ex vivo" effect of ST 557, ST 563, ST 570 and ST 626 on the cytotoxic activity of peritoneal macrophages (M)
Male hybrid B6 D2 F1 aged 7-9 weeks and male inbred mice C57B16 aged 8 weeks were used (4 animals/group).
All the compounds were administered i.p. (25 mg/kg/day). ST 557 was also administered per os (100 mg/kg/day) from day -5 to day -1 (peritoneal exudate cell [PEC] harvesting at day 0).
PEC were obtained from sacrificed animals, 24 hours following the end of treatment, via repeated washings of the abdominal cavity. The peritoneal exudates obtained from each group of animals were pooled.
The macrophage percentage was assessed by counting in a Burker chamber; cell suspensions (concentration=2×10^6 M/ml) were prepared.
The macrophage cytotoxic activity was assessed using the following two tumor cell lines as targets: Daudi, derived from a human lymphoblastoma and CEM-CM3, derived from human lymphoblastic leukemia (both lines are disclosed in ATCC--American Type Culture Collection--Cell lines of hybridoma, 5th Ed.--1985).
The experimental procedure is substantially the same as that described by Herscowitz, H. B. (1981)--Manual of Macrophage Methodology. Dekker M, Editor.
In particular, samples of cell lines were labelled with ^3 H-TdR (tritiated thymidine) and their concentration was adjusted to 5×10^4 cells/ml. They were then added to the macrophage preparations (using 96-well microtiter plates) and the volumes were adjusted so as to obtain Effector (macrophage)/Target (tumor cell) ratios of 20:1; 40:1 and 80:1 in an overall volume of 0.3 ml/well.
Three replicates for each sample were prepared; after 48 and 72 hours of incubation at 37° C. in 5% CO2. Aliquots of 0.1 ml of supernatant were drawn out from each well and counted in a β-counter.
The macrophage cytotoxic activity results in a tumor cell lysis that causes the release of the radioactivity incorporated by the cells into the supernatant.
Based on the βeta-counter data (in cpm) this activity is expressed as the percentage of radioactivity released following lysis with respect to the radioactivity incorporated by the tumor cells.
The relevant formulas are as follows: [formula]
The measures carried out on the samples account for a certain degree of lysis occurring spontaneously in cultured tumor cells not exposed to macrophages. Total radioactivity incorporated by the tumor cells is calculated by conducting a lysis with 1% SDS in distilled water.

[2] = test system: peritoneal macrophages of treated mice; target tumor cells; assay: "In vitro-ex vivo" effect on the cytostatic activity of peritoneal macrophages; design: species or system mouse (B6 D2 F1); tumor targets human
Procedure: Assessment of the "in vitro-ex vivo" effect of ST 557, ST 563 and ST 570 on the cytostatic activity of peritoneal macrophages
Male B6 D2 F1 mice aged 7-9 weeks (5 animals per group) were used.
The compounds were administered i.p. (25 mg/kg/day), ST 557 and ST 563 were also administered per os (100 mg/kg/day) from day -5 to day -1 (peritoneal cell harvesting at day 0).
The macrophages and target tumor cell lines were prepared as in test 1 and their concentrations were adjusted to 1×10^6 M/ml and 5×10^4 cell/ml, respectively.
Volumes of tumor cells were added to the macrophage preparations so as to obtain Effector/Target ratios of 10:1, 20:1 and 40:1.
Each sample was pulsed with ^3 H-TdR for 18 hours in order to label the tumor cells, which were then collected on filters and counted in a beta-counter.
The macrophage cytostatic activity is expressed as percentage inhibition of tumor cell replication, by assessing the radioactivity incorporated by the tumor cells in each sample with respect to the maximum radioactivity incorporated by a sample consisting of tumor cells only. [formula]

[3] = Tolerability after oral or intravenous administration; design: species or system mouse (Swiss albino); conditions: mouse, in vivo, 7 days observation, read-out: Tolerability, dose
Procedure: The test was conducted in male Swiss albino mice weighing 22-24 g.
A group of animals (4 animals/dose) which had been kept fasting for 18 hours, were orally administered the compounds ST 557, ST 563, ST 564 and ST 570 dissolved in twice distilled water.
A further group of animals, which had free access to food and water, were administered intravenously the same compounds dissolved in saline it pH 7. All the animals were kept under observation for 7 days.

[4] = test system: murine peritoneal exudate cells (PEC); assay: "In vitro-ex vivo" effect on the phagocytic activity of exudate peritoneal cells (SRBC phagocytosis); design: species or system mouse (B6 D2 F1); conditions: 26 mg/kg/day i.p. (so in the source)
[5] = test system: splenocytes; assay: "In vitro-ex vivo" effect on the mytogen (PHA, LPS)-induced splenocyte proliferation in mice; design: species or system mouse (B6 D2 F1); conditions: 25 mg/kg/day i.p.
Procedure: Assessment of the "in vitro-ex vivo" effect of ST 557, ST 563, ST 608 on the mytogen (PHA, LPS)-induced splenocyte proliferation in mice
Male B6 D2 F1 mice aged 6-10 weeks (4 animals per group) were used.
The compounds were administered i.p. 25 mg/kg/day, from day -5 to -1 (spleen excision at day 0).
PHA (active on T lymphocytes) and LPS (active on B lymphocytes) were used as mytogens. Each mytogen was tested at three different concentrations (suboptimal, optimal, superoptimal): 0.5, 4 and 6 mcg/ml/well and 0.5, 150 and 500 mcg/ml/well, respectively.
The experimental procedure was conducted substantially as described by Kirchner et al., "Splenic suppressor macrophages induced in mice by injection of C. parvum", J. Immunol., 1975, 115: 1212.
In particular, the cell suspensions obtained from the spleens of the animals of the same group were pooled and the cell concentration was adjusted to 5×10^6 cells/ml.
To volumes of 0.1 ml of each sample, equal volumes of the mytogen preparations were added so as to obtain, for each mytogen, the previously indicated final concentrations.
Each sample was prepared in triplicate in U-bottom microtiters. A control, to which 0.1 ml of medium were added instead of the mytogen, was also prepared. The control permits the extent of spontaneous proliferation in the absence of stimulation to be assessed.
The samples were incubated at 37° C. for 48 hours and then they were pulsed with 20 μl ^3 H-TdR (25 μCi/ml).
After 18 hours of further incubation, the cells were collected on filters and counted in a beta-counter.
The results of each sample are expressed by calculating the value of the area under the curve (AUC) obtained by plotting the values of the incorporated radioactivity (in cpm) versus the various concentrations of each mytogen.
In addition to AUC, the stimulation index (SI) is also considered, that is defined as follows. [formula]

[6] = test system: murine peritoneal exudate cells (PEC); assay: "In vitro-ex vivo" effect on the phagocytic activity of exudate peritoneal cells (SRBC phagocytosis); design: species or system mouse (B6 D2 F1); conditions: for SRBC per phagocytizing cell: average number of SRBC in each phagocyte
Procedure: Assessment of the "in vitro-ex vivo" effect of ST 557, ST 563, ST 564, ST 570, ST 608 and ST 626 on the phagocytic activity of exudate peritoneal cells (PEC)
Male B6 D2 F1 mice aged 6-8 weeks (5 animals each group) were used.
The compounds were administered i.p. (25 mg/kg/day), ST 557, ST 563 and ST 626 were also administered per os (100 mg/kg/day) from day -5 to day -1 (PEC harvesting at day 0).
The experimental procedure was substantially the same as that described by Williams et al., in "Methods in Immunology and Immunochemistry", Acad. Press. 5: 261 (1976).
In particular, 24 hours following the end of the treatment, PECs from each experimental group were harvested, pooled and their concentration was adjusted to 4×10^6 cells/ml.
To volumes of 250 μl of each PEC sample were added equal volumes of 0.4% SRBC (Sheep Red Blood Cells) opsonized with hyperimmune serum.
The samples (duplicate) were incubated for 1 hour and then subjected to hypotonic shock in order to remove the non-phagocytized SRBC. After restoring the osmolarity, the phagocytes were cytocentrifuged, stained with a differential dye and observed under the microscope.
The results were expressed as:
(a) percentage of cells that have phagocytized with respect to 100 phagocytizing cells;
(b) total number of phagocytized SRBC;
(c) average number of SRBC in each phagocyte.

[7] = 48 hours, E/T 20:1, 25 mg/kg/day i.p., B6 D2 F1
[8] = 48 hours, E/T 20:1, 25 mg/kg/day i.p., repeated experiment, B6 D2 F1
[9] = 48 hours, E/T 20:1, 25 mg/kg/day i.p., repeated experiment, C57B16 mice
[10] = 48 hours, E/T 40:1, 25 mg/kg/day i.p., B6 D2 F1
[11] = 48 hours, E/T 40:1, 25 mg/kg/day i.p., repeated experiment, B6 D2 F1
[12] = 48 hours, E/T 40:1, 25 mg/kg/day i.p., repeated experiment, C57B16 mice
[13] = 48 hours, E/T 80:1, 25 mg/kg/day i.p., repeated experiment, B6 D2 F1
[14] = 72 hours, E/T 20:1, 25 mg/kg/day i.p., B6 D2 F1
[15] = 72 hours, E/T 20:1, 25 mg/kg/day i.p., repeated experiment, B6 D2 F1
[16] = 72 hours, E/T 20:1, 25 mg/kg/day i.p., repeated experiment, C57B16 mice
[17] = 72 hours, E/T 40:1, 25 mg/kg/day i.p., B6 D2 F1
[18] = 72 hours, E/T 40:1, 25 mg/kg/day i.p., repeated experiment, B6 D2 F1
[19] = 72 hours, E/T 40:1, 25 mg/kg/day i.p., repeated experiment, C57B16 mice
[20] = 72 hours, E/T 80:1, 25 mg/kg/day i.p., repeated experiment, B6 D2 F1

| SMILES | % lysis of tumor target [1, 7] | % lysis of tumor target [1, 8] | % lysis of tumor target [1, 9] | % lysis of tumor target [1, 10] | % lysis of tumor target [1, 11] | % lysis of tumor target [1, 12] | % lysis of tumor target [1, 13] | % lysis of tumor target [1, 14] | % lysis of tumor target [1, 15] | % lysis of tumor target [1, 16] | % lysis of tumor target [1, 17] | % lysis of tumor target [1, 18] | % lysis of tumor target [1, 19] | % lysis of tumor target [1, 20] | Fagocytizing cells ([6]; 25 mg/kg/day i.p.) | Total n° SRBC phagocytized ([6]; 25 mg/kg/day i.p.) | SRBC per phagocytizing cell ([6]; 25 mg/kg/day i.p.) | other results |
| --- | --- | --- | --- | --- | --- | --- | --- | --- | --- | --- | --- | --- | --- | --- | --- | --- | --- | --- |
| CCN(CC(O)c1ccccc1)C1CCc2cc(OC)c(OC)cc2C1 (stereo not shown) [ST 570, 2-[(N-ethyl, N-2-hydroxy-2-phenylethyl)amino]-6,7-dimethoxytetraline] | 14.0 ± 0.7% | 9.0 ± 0.4% | 8.8 ± 1.2% | 34.7 ± 1.2% | 10.9 ± 1.0% | 13.0 ± 0.5% | 19.0 ± 1.0% | 19.3 ± 0.7% | 13.2 ± 0.2% | 10.8 ± 1.5% | 45.4 ± 2.1% | 15.7 ± 0.8% | 14.9 ± 0.3% | 25.3 ± 1.0% | – | – | – | % lysis of tumor target ([1]; 48 hours, E/T 80:1, 25 mg/kg/day i.p., repeated experiment, C57B16 mice): 14.6 ± 0.6%; % lysis of tumor target ([1]; 72 hours, E/T 80:1, 25 mg/kg/day i.p., repeated experiment, C57B16 mice): 16.2 ± 0.8%; % of inhibition of target tumor growth ([2]; E/T 20:1, 25 mg/kg/day i.p.): 38.3 ± 2.5%; % of inhibition of target tumor growth ([2]; E/T 40:1, 25 mg/kg/day i.p.): 71.0 ± 2.4%; MTD at 168 h ([3]; iv): > 20 mg/kg; MTD at 168 h ([3]; po, os, fasting 18 hours): > 50 mg/kg; Fagocytizing cells [4]: 41.0%; SRBC per phagocytizing cell ([4]; average number of SRBC in each phagocyte): 3.3 |
| CCCNC1CCc2cc(OC(C)=O)c(OC(C)=O)cc2C1 (stereo not shown) [ST 608, 2-N-propylamino-6,7-diacetoxytetraline] | – | – | – | – | – | – | – | – | – | – | – | – | – | – | 41.0% | 137.5 | 3.30 | AUC (area under curve, incorporated radioactivity vs mytogen concentration) ([5]; LPS): 10333 ± 807 ×10^-3 and 18054 ± 970 ×10^-3 and 14490 ± 433 ×10^-3 and 15892 ± 339 ×10^-3; S.I. (stimulation index) ([5]; LPS): 1.27 and 1.10 and 1.20 and 1.06; AUC (area under curve, incorporated radioactivity vs mytogen concentration) ([5]; PHA): 183 ± 6 ×10^-3 and 128 ± 4 ×10^-3 and 146 ± 4 ×10^-3 and 233 ± 2 ×10^-3; S.I. (stimulation index) ([5]; PHA): 1.11 and 1.04 and 1.07 and 1.12 |
| COc1cc2c(cc1F)CCC(N)C2 (stereo not shown) [ST 626, 2-amino-6-fluoro-7-methoxytetraline] | 7.4 ± 0.2% | 8.0 ± 0.8% | 11.8 ± 0.6% | 12.8 ± 0.8% | 18.7 ± 0.1% and 11.6 ± 0.7% | 12.7 ± 0.1% | 18.8 ± 0.1% and 28.0 ± 5.6% | 10.8 ± 0.3% | 12.3 ± 0.6% | 12.6 ± 0.1% | 17.6 ± 0.8% | 27.5 ± 0.6% and 14.3 ± 0.6% | 13.5 ± 0.7% | 28.0 ± 0.7% and 32.0 ± 4.3% | 41.0% | 137.5 | 3.30 | Fagocytizing cells ([6]; 100 mg/kg/day os): 57.0%; Total n° SRBC phagocytized ([6]; 100 mg/kg/day os): 222.0; SRBC per phagocytizing cell ([6]; 100 mg/kg/day os): 3.89 |
